Laboratory results: US8383088B2, “Coumestan-like antioxidants and UV absorbants” (BASF SE, priority 2007, dated 2013)

Experiment: DPPH assay of antioxidative (antiradical) activity
Conditions: measured in EC50 and 1/EC50 values
Source text: For tests of antioxidative activity, the DPPH assay is used. DPPH (2,2-Diphenyl-1-picrylhydrazyl) is a stable radical, which absorbs in its radical form at 515 nm. Upon reduction by an antioxidant (AH), the absorption disappears:
The rate of reaction (1) can be rather different for different antioxidants. In the case of the vitamins C and E, the equilibrium is reached in several minutes, however for other antioxidants it may also take hours. In the test, the ratio of the molar concentrations of the antioxidant and DPPH is varied (this ratio is named “EC”=efficient concentration), and the concentration of DPPH in the equilibrium state is measured for each ratio. Antiradical activity is defined as the amount of antioxidant necessary to decrease the initial DPPH-concentration by 50%, and is characterized by the so-called EC50 value. The smaller the EC50 value, the more efficient is the antioxidant. Thus, the inverse, 1/EC50, can be used to quantify the antiradical power.
Solutions of DPPH and the antioxidants in ethanol are prepared separately and added together for starting the reaction (0.5 cm^3 of a 250 μM antioxidant solution is added to 2.5 cm^3 of a 100 μM DPPH solution). The absorption is measured using a Perkin Elmer Lambda 20 spectrophotometer.

| SMILES | antioxidant/radical power compared to state-of-the-art antioxidants (101) and (102) |
| --- | --- |
| COc1c(O)c(O)cc2c1oc1cc(C)oc(=O)c12 [Compound A-1, 7,8-dihydroxy-6-methoxy-3-methyl-1H-pyrano[4,3-b]benzofuran-1-one] | significantly higher antioxidant/radical power |
| Cc1cc2oc3cc(O)c(O)cc3c2c(=O)o1 [Compound A-2, 7,8-dihydroxy-3-methyl-1H-pyrano[4,3-b]benzofuran-1-one] | significantly higher antioxidant/radical power |
| Cl.NCCCCCc1cc2oc3cc(O)c(O)cc3c2c(=O)o1 [Compound A-23] | significantly higher antioxidant/radical power |
